The values below come from patent US11357748B2, “Methods for treating mendelian disorders of the epigenetic machinery” (THE JOHNS HOPKINS UNIVERSITY, priority 2014, dated 2022).

Structures are written as SMILES. Entries after “also recorded” stand apart in the source; their conditions may differ.

For test [1], the system named is H3K4me3 in the dentate gyrus GCL. In words: Immunofluorescence of H3K4me3 in the dentate gyrus GCL after oral AR-42. It is filed as in vivo, mouse. The note with it: 25 mg/kg/day oral, two weeks, from 20 weeks of age; vs untreated; FIG. 24A, 24B. The source says:
Kmt2d^+/βGeo mice, also named Mll2Gt^(RRt024) Byg, were acquired from Bay Genomics (University of California). All experimental mice were on a mixed C57BL/6J and 129/SvEv background. Expected Mendelian ratios were observed when heterozygous animals were bred to wild-type. In heterozygous crosses, however, there was uniform embryonic lethality of homozygotes by ED 12, the earliest developmental stage assayed. For treatment with AR-42, mice were orally gavaged daily with drug (Selleck Chemicals, Houston, Tex.) solubilized in vehicle (0.5% methylcellulose, 0.1% Tween-80, water) or with vehicle alone. Drug delivery information was kindly provided by Drs. […] For quantification of DCX positive cells, doses of 0, 5, 10 and 25 mg/kg/day were used. […] Maxillary protrusion was evaluated by ten investigators blinded to genotype and they were asked to rate maxillary protrusion on radiographs as either large (2) or small (1). […]
Z-stack images of slides were taken at either 10× using Zeiss Axiovert 200 with 510-Meta confocal module (Carl Zeiss, Jena, GER) or 25× using Zeiss AxioExaminer with 710NLO-Meta multiphoton (Carl Zeiss, Jena, GER). From 10× pictures, the GCL was highlighted and fluorescent intensities for both DAPI and H3K4me3 were measured at the midpoint of the entire z-stack (Zen software, Carl Zeiss, Jena, GER) with the value for Kmt2d^+/+ animals set equal to one. […]

The test system of test [2] is genome-wide H3K4me3 in spleen cells. Briefly: ChIP-seq of H3K4me3 in spleen cells of treated mice. It is filed as in vivo, mouse. As to conditions: 10 mg/kg/day; vs Kmt2d+/+ littermates on vehicle; FIG. 25E, 27B. On the procedure:
Spleens were dissected from eight mice, four from each kmt2d genotype (+/βGeo or +/+) where half of each genotype was treated with AR-42 and half with vehicle only. Spleens were minced and passed through a 40 µm cell strainer to obtain single cell suspensions. 10 million cells were used for each ChIP-seq experiment following the native chromatin immunoprecipitation protocol, as previously described (Gilfillan et al. (2012) BMC Genomics 13:645), using a ChIP-grade antibody against H3K4me3 (9727, Cell Signaling Technology, Beverly, Mass.).
Sequencing was performed using a MiSeq system (Illumina, San Diego, Calif.). 4.8-9.6 million paired-end 26 bp reads were obtained per sample (Table 2; nReads=number of reads, alignRate=fraction aligned to genome; FRIP=fraction of reads in peaks). Reads were aligned to the m. musculus genome, version mm 10, using Bowtie 2 (Langmead and Salzberg (2012) Nat. Methods. 9: 357-9). Each sample was examined with regard to alignment rate as well as FRIP (fraction of reads in peaks), a measure of the ChIP efficiency (Table 2). […] For analysis, reads were merged into one meta-sample and peak calling was performed using MACS version 1.4.2 (Zhang et al. (2008) Genome Biol. 9: R137). […] This created a peak by sample matrix of read counts. […] Fold change and overall abundance was calculated as per edgeR. […]

For test [3], the system named is H3K4 trimethylation and histone acetylation. As to conditions: Huang et al. (2011); cited from earlier work.

For `CC(C)[C@H](C(=O)Nc1ccc(C(=O)NO)cc1)c1ccccc1` [AR-42, (S)—N-hydroxy-4-(3-methyl-2-phenylbutanamido)benzamide], the “H3K4me3 in the GCL” value in test [1] is given as “increased H3K4 trimethylation”. Further, in test [2], the “genome-wide H3K4me3 in spleen cells of Kmt2d+/βGeo mice” value was “genome-wide increase in H3K4me3; also recorded: overcorrection of genome-wide H3K4me3; also recorded: improved”. For the same compound, in test [3], the “relative effect on H3K4me3 among HDACi” value is listed as “strongest effect on H3K4me3”.
